Results on ten molecules are retold here after ChEMBL document CHEMBL1909294, “Translating clinical findings into knowledge in drug safety evaluation--drug induced liver injury prediction system (DILIps)” (PLoS Comput Biol, 2011).

In series [1] the test system is Hepatotoxicity.
The test system of series [2] is Hepatotoxicity. The source holds these as a separate data set.
In series [3] the test system is Hepatotoxicity. This is another data set of the same source.
Series [4] deals with Hepatotoxicity. This is another data set of the same source.
For series [5], the system named is Hepatotoxicity. The source holds these as a separate data set.
For series [6], the system named is Hepatotoxicity. The source holds these as a separate data set.
The subject of series [7] is Hepatotoxicity. The source holds these as a separate data set.
Series [8] concerns Hepatotoxicity. This is another data set of the same source.
Series [9] has as its system Hepatotoxicity. This is another data set of the same source.
In series [10] the test system is Hepatotoxicity. The source holds these as a separate data set.
Series [11] deals with Hepatotoxicity. This is another data set of the same source.
Series [12] has as its system Hepatotoxicity. The source holds these as a separate data set.
In series [13] the test system is Hepatotoxicity. The source holds these as a separate data set.
The subject of series [14] is Hepatotoxicity. This is another data set of the same source.
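Wherever HepSE Combined Scores is given: combined hepatic side effect score as listed in the training data of the Drug Induced Liver Injury Prediction System (DILIps).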
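Wherever HepSE bilirubinemia is given: bilirubinemia hepatic side effect score drawn from the DILIps training data, a prediction system for drug-induced liver injury; call rule not given here.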
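Wherever HepSE cholecystitis is given: Cholecystitis-related hepatic side effect score drawn from the DILIps (drug-induced liver injury prediction) training data set; call rule not given here.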
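Wherever HepSE cholelithiasis is given: hepatic side effect score for cholelithiasis, drawn from the DILIps training data for predicting drug-induced liver injury; call rule not given here.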
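Wherever HepSE cirrhosis is given: cirrhosis hepatic side effect score taken from the DILIps (drug-induced liver injury prediction) training set; call rule not given here.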
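Wherever HepSE elevated liver function tests is given: hepatic side effect score for raised liver function tests, as recorded in the DILIps training set used for predicting drug-induced liver injury.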
Wherever HepSE hepatic failure is given: call rule not given here.
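Wherever HepSE hepatic necrosis is given: score of hepatic side effects for hepatic necrosis, drawn from the training data of DILIps, a prediction system for drug-induced liver injury; call rule not given here.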
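Wherever HepSE hepatitis is given: Hepatitis-related hepatic side effect score taken from the training data of DILIps, a prediction system for drug-induced liver injury; call rule not given here.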
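Wherever HepSE hepatomegaly is given: hepatic side effect score for hepatomegaly, taken from the training set of the DILIps drug-induced liver injury prediction system; call rule not given here.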
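Wherever HepSE jaundice is given: Jaundice-related hepatic side-effect score drawn from the training data of the DILIps (drug-induced liver injury prediction system); call rule not given here.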
Wherever HepSE liver disease is given: call rule not given here.
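Wherever HepSE liver fatty is given: hepatic side effect score for fatty liver, taken from the DILIps training set for predicting drug-induced liver injury; call rule not given here.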
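Wherever HepSE liver function tests abnormal is given: hepatic side effect score taken from the DILIps (drug-induced liver injury prediction system) training data, here covering abnormal liver function test findings.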

The molecule `Cc1cccc(CN2CCN(C(c3ccccc3)c3ccc(Cl)cc3)CC2)c1` (stereo not given) [MECLIZINE] had a HepSE_bilirubinemia in the series on Hepatotoxicity [1] of 0. The HepSE_cholecystitis in the series with Hepatotoxicity [2] is 0. Moreover, in the series on Hepatotoxicity [3], the HepSE_cholelithiasis amounted to 0. Besides, in the series on Hepatotoxicity [4], the HepSE_cirrhosis was found to be 0. For the same molecule, the “HepSE_elevated liver function tests” value with Hepatotoxicity [5] is reported as 0. The same molecule had a HepSE_hepatic failure with Hepatotoxicity [6] of 0. In the series on Hepatotoxicity [7], this molecule had a HepSE_hepatic necrosis of 0. The same molecule yielded a HepSE_hepatitis in the series with Hepatotoxicity [8] of 0. Further, the HepSE_hepatomegaly in the series with Hepatotoxicity [9] was 0. This molecule yielded a HepSE_jaundice in the series with Hepatotoxicity [10] of 0. In the series with Hepatotoxicity [11], the HepSE_liver disease worked out at 0. Besides, the HepSE_liver fatty with Hepatotoxicity [12] is given as 0. In addition, the “HepSE_liver function tests abnormal” value with Hepatotoxicity [13] was 0. Also, in the series with Hepatotoxicity [14], the “HepSE_Combined Scores” value worked out at 0.

In the case of `Cc1ccc(Cl)c(Nc2ccccc2C(=O)O)c1Cl` [MECLOFENAMIC ACID], the HepSE_bilirubinemia in the series on Hepatotoxicity [1] worked out at 0. The HepSE_cholecystitis in the series on Hepatotoxicity [2] was found to be 0. Besides, the HepSE_cholelithiasis with Hepatotoxicity [3] worked out at 0. The same molecule displayed a HepSE_cirrhosis with Hepatotoxicity [4] of 0. Further, in the series with Hepatotoxicity [5], the “HepSE_elevated liver function tests” value was 0. In the series with Hepatotoxicity [6], this molecule registered a HepSE_hepatic failure of 0. In the series on Hepatotoxicity [7], this molecule showed a HepSE_hepatic necrosis of 0. The HepSE_hepatitis with Hepatotoxicity [8] amounted to 0. Further, in the series on Hepatotoxicity [9], the HepSE_hepatomegaly was 0. In the series with Hepatotoxicity [10], the HepSE_jaundice was 1. The same molecule showed a HepSE_liver disease in the series with Hepatotoxicity [11] of 0. The same molecule gave a HepSE_liver fatty in the series with Hepatotoxicity [12] of 0. Also, the “HepSE_liver function tests abnormal” value with Hepatotoxicity [13] was determined as 0. Besides, the “HepSE_Combined Scores” value in the series on Hepatotoxicity [14] is reported as 1.

As to `Cc1cccc(Nc2ccccc2C(=O)O)c1C` [MEFENAMIC ACID], in the series on Hepatotoxicity [1] (Liver), the HepSE_bilirubinemia amounted to 0. This molecule showed a HepSE_cholecystitis with Hepatotoxicity [2] (Liver) of 0. In the series on Hepatotoxicity [3] (Liver), this molecule had a HepSE_cholelithiasis of 0. Moreover, the HepSE_cirrhosis in the series with Hepatotoxicity [4] (Liver) stood at 0. Further, the “HepSE_elevated liver function tests” value in the series with Hepatotoxicity [5] (Liver) is recorded as 0. Moreover, the HepSE_hepatic failure in the series on Hepatotoxicity [6] (Liver) was 1. The HepSE_hepatic necrosis in the series with Hepatotoxicity [7] (Liver) is 0. The molecule also returned a HepSE_hepatitis with Hepatotoxicity [8] (Liver) of 1. Further, the HepSE_hepatomegaly with Hepatotoxicity [9] (Liver) is reported as 0. Moreover, the HepSE_jaundice with Hepatotoxicity [10] (Liver) amounted to 1. In the series on Hepatotoxicity [11] (Liver), this molecule returned a HepSE_liver disease of 0. In addition, the HepSE_liver fatty with Hepatotoxicity [12] (Liver) turned out to be 0. Also, the “HepSE_liver function tests abnormal” value with Hepatotoxicity [13] (Liver) was found to be 0. Besides, in the series with Hepatotoxicity [14] (Liver), the “HepSE_Combined Scores” value turned out to be 3.

The molecule `OC(c1cc(C(F)(F)F)nc2c(C(F)(F)F)cccc12)C1CCCCN1` (stereo not given) [MEFLOQUINE] came in with a HepSE_bilirubinemia in the series on Hepatotoxicity [1] of 0. Also, the HepSE_cholecystitis with Hepatotoxicity [2] worked out at 0. Further, the HepSE_cholelithiasis with Hepatotoxicity [3] was 0. The molecule further registered a HepSE_cirrhosis with Hepatotoxicity [4] of 0. Moreover, in the series with Hepatotoxicity [5], the “HepSE_elevated liver function tests” value stood at 0. The molecule also yielded a HepSE_hepatic failure with Hepatotoxicity [6] of 0. In addition, the HepSE_hepatic necrosis in the series with Hepatotoxicity [7] came out at 0. In the series on Hepatotoxicity [8], this molecule came in with a HepSE_hepatitis of 0. The HepSE_hepatomegaly in the series with Hepatotoxicity [9] is 0. The molecule further had a HepSE_jaundice with Hepatotoxicity [10] of 0. In the series with Hepatotoxicity [11], this molecule had a HepSE_liver disease of 0. In the series on Hepatotoxicity [12], this molecule gave a HepSE_liver fatty of 0. In the series on Hepatotoxicity [13], the “HepSE_liver function tests abnormal” value is on record as 0. For the same molecule, the “HepSE_Combined Scores” value in the series with Hepatotoxicity [14] is listed as 0.

For the molecule `CC(=O)O[C@]1(C(C)=O)CC[C@H]2[C@@H]3C=C(C)C4=CC(=O)CC[C@]4(C)[C@H]3CC[C@@]21C` [MEGESTROL ACETATE], the HepSE_bilirubinemia with Hepatotoxicity [1] is recorded as 0. Further, the HepSE_cholecystitis with Hepatotoxicity [2] was 0. The molecule also came in with a HepSE_cholelithiasis in the series on Hepatotoxicity [3] of 0. In addition, the HepSE_cirrhosis in the series with Hepatotoxicity [4] worked out at 0. In the series with Hepatotoxicity [5], the “HepSE_elevated liver function tests” value worked out at 0. Further, the HepSE_hepatic failure with Hepatotoxicity [6] is 0. Also, in the series on Hepatotoxicity [7], the HepSE_hepatic necrosis is recorded as 0. Besides, the HepSE_hepatitis in the series with Hepatotoxicity [8] amounted to 0. The HepSE_hepatomegaly in the series with Hepatotoxicity [9] came to 1. For the same molecule, the HepSE_jaundice in the series with Hepatotoxicity [10] is 0. The HepSE_liver disease with Hepatotoxicity [11] is on record as 0. Besides, in the series on Hepatotoxicity [12], the HepSE_liver fatty came out at 0. In addition, in the series on Hepatotoxicity [13], the “HepSE_liver function tests abnormal” value was found to be 0. Also, the “HepSE_Combined Scores” value with Hepatotoxicity [14] is recorded as 1.

The molecule `Cc1cnc(NC(=O)C2=C(O)c3ccccc3S(=O)(=O)N2C)s1` [MELOXICAM] displayed a HepSE_bilirubinemia in the series with Hepatotoxicity [1] of 1. Moreover, the HepSE_cholecystitis in the series with Hepatotoxicity [2] was 0. The molecule further yielded a HepSE_cholelithiasis in the series with Hepatotoxicity [3] of 0. For the same molecule, the HepSE_cirrhosis in the series with Hepatotoxicity [4] stood at 0. The “HepSE_elevated liver function tests” value in the series on Hepatotoxicity [5] is 0. In the series with Hepatotoxicity [6], this molecule gave a HepSE_hepatic failure of 1. The molecule also yielded a HepSE_hepatic necrosis in the series on Hepatotoxicity [7] of 0. In addition, the HepSE_hepatitis in the series with Hepatotoxicity [8] was found to be 1. Also, the HepSE_hepatomegaly in the series on Hepatotoxicity [9] came out at 0. Further, in the series on Hepatotoxicity [10], the HepSE_jaundice is on record as 1. In the series on Hepatotoxicity [11], the HepSE_liver disease came out at 0. This molecule had a HepSE_liver fatty in the series on Hepatotoxicity [12] of 0. For the same molecule, the “HepSE_liver function tests abnormal” value with Hepatotoxicity [13] came out at 0. Further, the “HepSE_Combined Scores” value in the series with Hepatotoxicity [14] was determined as 4.

As for `CC12CC3CC(C)(C1)CC(N)(C3)C2` [MEMANTINE], the HepSE_bilirubinemia in the series with Hepatotoxicity [1] turned out to be 0. For the same molecule, the HepSE_cholecystitis in the series with Hepatotoxicity [2] came to 0. Moreover, the HepSE_cholelithiasis with Hepatotoxicity [3] was 1. In addition, the HepSE_cirrhosis in the series on Hepatotoxicity [4] was 0. Also, the “HepSE_elevated liver function tests” value with Hepatotoxicity [5] is given as 0. The HepSE_hepatic failure with Hepatotoxicity [6] was determined as 1. In the series with Hepatotoxicity [7], this molecule registered a HepSE_hepatic necrosis of 0. In the series on Hepatotoxicity [8], this molecule returned a HepSE_hepatitis of 1. In the series with Hepatotoxicity [9], the HepSE_hepatomegaly was determined as 0. Moreover, in the series with Hepatotoxicity [10], the HepSE_jaundice is listed as 0. The molecule further came in with a HepSE_liver disease in the series on Hepatotoxicity [11] of 0. Moreover, the HepSE_liver fatty in the series with Hepatotoxicity [12] amounted to 0. Further, the “HepSE_liver function tests abnormal” value with Hepatotoxicity [13] is given as 0. Besides, the “HepSE_Combined Scores” value in the series on Hepatotoxicity [14] was 3.

`C[N+]1(C)CCCC(OC(=O)C(O)(c2ccccc2)c2ccccc2)C1.[Br-]` (stereo not given) [MEPENZOLATE BROMIDE] registered a HepSE_bilirubinemia with Hepatotoxicity [1] of 0. The molecule also returned a HepSE_cholecystitis in the series with Hepatotoxicity [2] of 0. In the series on Hepatotoxicity [3], this molecule came in with a HepSE_cholelithiasis of 0. This molecule also gave a HepSE_cirrhosis in the series with Hepatotoxicity [4] of 0. The “HepSE_elevated liver function tests” value in the series on Hepatotoxicity [5] is reported as 0. The molecule further yielded a HepSE_hepatic failure with Hepatotoxicity [6] of 0. In the series with Hepatotoxicity [7], the HepSE_hepatic necrosis is on record as 0. In the series with Hepatotoxicity [8], this molecule had a HepSE_hepatitis of 0. Moreover, in the series with Hepatotoxicity [9], the HepSE_hepatomegaly amounted to 0. Further, the HepSE_jaundice in the series on Hepatotoxicity [10] stood at 0. The molecule also had a HepSE_liver disease with Hepatotoxicity [11] of 0. In the series with Hepatotoxicity [12], this molecule came in with a HepSE_liver fatty of 0. Also, in the series on Hepatotoxicity [13], the “HepSE_liver function tests abnormal” value was 0. For the same molecule, in the series with Hepatotoxicity [14], the “HepSE_Combined Scores” value was 0.

For `CCOC(=O)C1(c2ccccc2)CCN(C)CC1` [MEPERIDINE], in the series on Hepatotoxicity [1], the HepSE_bilirubinemia worked out at 0. In the series with Hepatotoxicity [2], this molecule registered a HepSE_cholecystitis of 0. The same molecule came in with a HepSE_cholelithiasis with Hepatotoxicity [3] of 0. Moreover, the HepSE_cirrhosis in the series on Hepatotoxicity [4] came out at 0. For the same molecule, in the series on Hepatotoxicity [5], the “HepSE_elevated liver function tests” value amounted to 0. Also, the HepSE_hepatic failure in the series with Hepatotoxicity [6] was 0. For the same molecule, the HepSE_hepatic necrosis with Hepatotoxicity [7] was 0. The HepSE_hepatitis with Hepatotoxicity [8] was 0. Besides, the HepSE_hepatomegaly in the series on Hepatotoxicity [9] worked out at 0. The same molecule gave a HepSE_jaundice in the series with Hepatotoxicity [10] of 0. This molecule returned a HepSE_liver disease in the series on Hepatotoxicity [11] of 0. Also, the HepSE_liver fatty in the series on Hepatotoxicity [12] is given as 0. In the series with Hepatotoxicity [13], the “HepSE_liver function tests abnormal” value is recorded as 0. For the same molecule, the “HepSE_Combined Scores” value with Hepatotoxicity [14] was determined as 0.

The molecule `CCC1(c2ccccc2)NC(=O)N(C)C1=O` (stereo not given) [MEPHENYTOIN] returned a HepSE_bilirubinemia in the series on Hepatotoxicity [1] of 0. The same molecule displayed a HepSE_cholecystitis with Hepatotoxicity [2] of 0. The same molecule showed a HepSE_cholelithiasis in the series with Hepatotoxicity [3] of 0. The molecule further returned a HepSE_cirrhosis in the series on Hepatotoxicity [4] of 0. Further, the “HepSE_elevated liver function tests” value in the series on Hepatotoxicity [5] amounted to 0. The molecule further gave a HepSE_hepatic failure with Hepatotoxicity [6] of 0. Further, in the series with Hepatotoxicity [7], the HepSE_hepatic necrosis was determined as 0. Moreover, the HepSE_hepatitis in the series on Hepatotoxicity [8] was 1. The molecule also returned a HepSE_hepatomegaly in the series with Hepatotoxicity [9] of 0. Also, the HepSE_jaundice in the series on Hepatotoxicity [10] turned out to be 1. In the series on Hepatotoxicity [11], this molecule yielded a HepSE_liver disease of 0. The molecule also yielded a HepSE_liver fatty in the series on Hepatotoxicity [12] of 0. In the series with Hepatotoxicity [13], the “HepSE_liver function tests abnormal” value was 0. Besides, the “HepSE_Combined Scores” value in the series on Hepatotoxicity [14] came out at 2.
